Test system: IGROV1 cells
Experiment: Clonogenic assay, IGROV1
Type: cell-based, human
Conditions: 2 hour exposure, 9-day chase
Description: IGROV1 cells seeded in 6-well plates (1000 cells/well) were exposed for 2 hours to Conjugate 5 at 1, 10, and 100 nM and followed by a 9-day chase in drug-free medium. Afterwards, the cells were washed with PBS and fixed for 5 minutes in a 3:1 methanol:acetic acid solution. The cells were then stained with 0.5% crystal violet/methanol solution for 15 minutes and washed with tap water. After a drying step, the colonies were photographed and counted using the ImageJ software.
Afterwards, the cells were washed with PBS and fixed for 5 minutes in a 3:1 methanol:acetic acid solution. The cells were then stained with 0.5% crystal violet/methanol solution for 15 minutes and washed with tap water. After a drying step, the colonies were photographed and counted using the ImageJ software.

C=C1C[C@H]2C=Nc3cc(OCCCCCOc4cc(N)c(C(=O)N5CC(=C)C[C@H]5C5OCCN5C(=O)OCC(C)(C)SSCCC(=O)NCCNC(=O)CCOCCOCCOCCOCCNC(=O)CCN5C(=O)CC(SC[C@H](NC(=O)[C@H](CC(=O)O)NC(=O)[C@H](CC(=O)O)NC(=O)[C@H](CCCNC(=N)N)NC(=O)[C@H](CC(=O)O)NC(=O)CC[C@H](NC(=O)c6ccc(NCc7cnc8nc(N)[nH]c(=O)c8n7)cc6)C(=O)O)C(=O)O)C5=O)cc4OC)c(OC)cc3C(=O)N2C1 (stereo partly drawn) [Conjugate 5]
clonogenic activity (1, 10, 100 nM): potent activity at all concentrations
clonogenic activity, comparison Conjugate 5 and EC1456 (1, 10, 100, 1000 nM): potent activity at all concentrations tested
clonogenic anti-tumor activity in the presence of excess folic acid (1 and 10 nM, excess folic acid): significantly reduced
